Source: PubChem BioAssay (NCI)
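Cells were grown in 96-well plates and exposed to each compound for 48 hours at five concentrations; endpoints were interpolated linearly between bracketing concentrations, or set to the highest concentration if not reached. GI50 is the concentration that inhibits growth by half. TGI marks complete inhibition of growth.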

Experiments:
Assay in all cases: NCI anticancer screen, dose series, 48 h
[1] = test system: SK-OV-3 ovarian
[2] = test system: HCT-116 colon
[3] = test system: NCI-H23 lung
[4] = test system: EKVX NSCLC
[5] = test system: MALME-3M melanoma
[6] = test system: T-47D breast
[7] = test system: OVCAR-8 ovarian
[8] = test system: LOX IMVI melanoma
[9] = test system: UACC-257 melanoma
[10] = test system: NCI-H460 lung
[11] = test system: RXF 393 renal
[12] = test system: A549 NSCLC
[13] = test system: KM12 colon
[14] = test system: OVCAR-3 ovarian
[15] = test system: PC-3 prostate
[16] = test system: CAKI-1 renal
[17] = test system: NCI/ADR-RES ovarian
[18] = test system: NCI-H226 lung
[19] = test system: SF-539 CNS
[20] = test system: SK-MEL-5 melanoma
[21] = test system: SR leukemia
[22] = test system: UACC-62 melanoma
[23] = test system: SK-MEL-28 melanoma
[24] = test system: K-562 leukemia
[25] = test system: SW-620 colon
[26] = test system: SF-295 CNS
[27] = test system: HT29 colon
[28] = test system: CCRF-CEM leukemia
[29] = test system: SN12C renal
[30] = test system: U251 CNS
[31] = test system: IGROV1 ovarian
[32] = test system: DU-145 prostate
[33] = test system: HCT-15 colon
[34] = test system: A498 renal
[35] = test system: MDA-MB-435
[36] = test system: MCF7 breast
[37] = test system: MOLT-4 leukemia
[38] = test system: TK-10 renal
[39] = test system: 786-0 renal
[40] = test system: OVCAR-5 ovarian
[41] = test system: UO-31 renal
[42] = test system: M14 melanoma
[43] = test system: NCI-H522 lung
[44] = test system: SNB-19 CNS
[45] = test system: BT-549 breast
[46] = test system: SNB-75 CNS
[47] = test system: RPMI-8226 leukemia
[48] = test system: ACHN renal
[49] = test system: MDA-MB-231 breast
[50] = test system: COLO 205 colon
[51] = test system: OVCAR-4 ovarian
[52] = test system: SK-MEL-2 melanoma
[53] = test system: HOP-92 NSCLC
[54] = test system: HCC-2998 colon
[55] = test system: HS 578T breast
[56] = test system: SF-268 CNS
[57] = test system: HOP-62 NSCLC
[58] = test system: HL-60(TB) leukemia

Compound: Cc1ccc(-c2nc3nc(-c4ccc(Br)cc4)nc(N4CCCNCC4)c3o2)cc1
- GI50 [1]: 17.5 µM
- TGI [1]: 33.4 µM
- GI50 [2]: 1.82 µM
- TGI [2]: 3.36 µM
- GI50 [3]: 17.1 µM
- TGI [3]: 34.9 µM
- GI50 [4]: 13.8 µM
- TGI [4]: 28.4 µM
- GI50 [5]: 15.4 µM
- TGI [5]: 30.1 µM
- GI50 [6]: 3.06 µM
- TGI [6]: 13.9 µM
- GI50 [7]: 2.28 µM
- TGI [7]: 5.28 µM
- GI50 [8]: 1.76 µM
- TGI [8]: 3.34 µM
- GI50 [9]: 18.2 µM
- TGI [9]: 39.7 µM
- GI50 [10]: 1.9 µM
- TGI [10]: 3.61 µM
- GI50 [11]: 13.7 µM
- TGI [11]: 27.5 µM
- GI50 [12]: 1.96 µM
- TGI [12]: 4.04 µM
- GI50 [13]: 1.93 µM
- TGI [13]: 3.82 µM
- GI50 [14]: 1.84 µM
- TGI [14]: 3.36 µM
- GI50 [15]: 2.48 µM
- TGI [15]: 7.52 µM
- GI50 [16]: 1.58 µM
- TGI [16]: 2.92 µM
- GI50 [17]: 2.2 µM
- TGI [17]: 4.58 µM
- GI50 [18]: 17 µM
- TGI [18]: 38.9 µM
- GI50 [19]: 3.27 µM
- TGI [19]: 11.4 µM
- GI50 [20]: 16.7 µM
- TGI [20]: 31.6 µM
- GI50 [21]: 1.78 µM
- TGI [21]: 4.4 µM
- GI50 [22]: 17 µM
- TGI [22]: 31.9 µM
- GI50 [23]: 17.4 µM
- TGI [23]: 31.8 µM
- GI50 [24]: 2.31 µM
- TGI [24]: 4.98 µM
- GI50 [25]: 1.84 µM
- TGI [25]: 3.57 µM
- GI50 [26]: 17.9 µM
- TGI [26]: 33 µM
- GI50 [27]: 1.86 µM
- TGI [27]: 3.54 µM
- GI50 [28]: 2.35 µM
- TGI [28]: 5.57 µM
- GI50 [29]: 10.5 µM
- TGI [29]: 23.7 µM
- GI50 [30]: 1.77 µM
- TGI [30]: 3.45 µM
- GI50 [31]: 1.84 µM
- TGI [31]: 3.61 µM
- GI50 [32]: 1.92 µM
- TGI [32]: 3.55 µM
- GI50 [33]: 1.72 µM
- TGI [33]: 3.25 µM
- GI50 [34]: 13.9 µM
- TGI [34]: 27.5 µM
- GI50 [35]: 1.88 µM
- TGI [35]: 3.74 µM
- GI50 [36]: 1.78 µM
- TGI [36]: 3.51 µM
- GI50 [37]: 2.08 µM
- TGI [37]: 4.14 µM
- GI50 [38]: 20 µM
- TGI [38]: 34.8 µM
- GI50 [39]: 3.95 µM
- TGI [39]: 16 µM
- GI50 [40]: 16.3 µM
- TGI [40]: 30 µM
- GI50 [41]: 2.12 µM
- TGI [41]: 7.04 µM
- GI50 [42]: 4.64 µM
- TGI [42]: 18.1 µM
- GI50 [43]: 1.86 µM
- TGI [43]: 4.5 µM
- GI50 [44]: 14.1 µM
- TGI [44]: 27.6 µM
- GI50 [45]: 16 µM
- TGI [45]: 34.6 µM
- GI50 [46]: 10.5 µM
- TGI [46]: 22.4 µM
- GI50 [47]: 2.58 µM
- TGI [47]: 6.63 µM
- GI50 [48]: 1.91 µM
- TGI [48]: 3.59 µM
- GI50 [49]: 1.93 µM
- TGI [49]: 4.05 µM
- GI50 [50]: 5.56 µM
- TGI [50]: 20.2 µM
- GI50 [51]: 7.2 µM
- TGI [51]: 21 µM
- GI50 [52]: 18.5 µM
- TGI [52]: 36.3 µM
- GI50 [53]: 12.7 µM
- TGI [53]: 29.5 µM
- GI50 [54]: 15.4 µM
- TGI [54]: 30.2 µM
- GI50 [55]: 17.2 µM
- TGI [55]: 37.1 µM
- GI50 [56]: 3.63 µM
- TGI [56]: 15.2 µM
- GI50 [57]: 15.8 µM
- TGI [57]: 35.1 µM
- GI50 [58]: 1.99 µM
- TGI [58]: 4.07 µM
